According to PMC12498288 (Frontiers in Immunology, 2025):
Several values for one entry are separate records, joined by “and”; a condition that tells them apart may be missing. Identical values can stand only once. Like-named read-outs stand apart in the source and are kept apart here.

Tests used:
[1] = system: cytokine and chemokine levels; assay: RESPIRE Phase 2 trial, cytokines/chemokines in hospitalized COVID-19 patients (MesoScale V-Plex); format: in vivo, human; conditions: vs placebo
Excerpt: For standard of care treatment see Supplementary Table 5 .

[2] = system: lymphocytes, T cells and B cells; assay: RESPIRE Phase 2 trial, lymphocytes, T and B cells in blood (flow cytometry); format: in vivo, human; conditions: 30-day observation period
Description: Patients receiving glucocorticoids as standard of care treatment were excluded from the analyses. Experiments were performed by CheckImmune GmbH according to the companies’ SOPs. In short, presence of lymphocytes, T cells and B cells were determined using Flow cytometry analysis. Fresh whole blood from hospitalized SARS-CoV-2 infected patients was stained with the aforementioned DuraClone antibody panels for 15 min at room-temperature and lysed for 15 min at room temperature following the standard staining protocol. Sample acquisition was carried out using the Navios Flow Cytometer (Beckman Coulter). Data analysis was conducted using Kaluza software before being sent to the LIMS system. This procedure is fit for purpose validated under ISO and GCP guidelines.

[3] = system: SARS-CoV-1; assay: microbe, parasite or virus in culture; format: cell-based, SARS-CoV-1 (SARS-CoV-HKU-39849); conditions: Severe acute respiratory syndrome coronavirus, Vero
[4] = system: cytokine and chemokine gene expression; assay: LPS-induced acute lung injury (ALI) mouse model, lung cytokine/chemokine mRNA (RT2 profiler PCR array)
[5] = system: Vero E6 cells; conditions: Vero E6 24 h 5% FBS
[6] = system: SARS-CoV-2 Omicron B1.1.592; assay: microbe, parasite or virus in culture; format: cell-based; conditions: Severe acute respiratory syndrome coronavirus 2, Calu-3, 24 h
[7] = system: HMGB1, GLDH, SELP; assay: Candidate safety biomarker analysis in hamster serum (IA-LC-MS/MS); format: in vivo, Syrian hamsters
Description: Serum samples from hamsters collected at pre- infection (0 dpi) and post-infection (4 dpi) and treatment time points were analyzed to evaluate the levels of various candidate safety biomarkers. Serum proteins were enzymatically fragmented through proteolysis, and protein-specific peptides were targeted for quantification of the corresponding protein biomarker levels by immunoaffinity liquid chromatography tandem mass spectrometry (IA-LC-MS/MS) performed as described previously ([48], [49]). For further details, see Supplementary Methods .
The candidate protein biomarkers were quantified via specific peptides analyzed by immunoaffinity liquid chromatography tandem mass spectrometry (IA-LC-MS/MS) assays. For proteolysis, 10 μL of each serum sample was mixed with 50 μL of digestion buffer (100 mM triethanolamine and 0.5% (w/v) n-octylglucoside (NOG)), and proteolysis reagents were added to achieve a final sample volume of 100 µL. The proteolysis procedure included denaturation at 99 °C for 5 minutes, reduction in 5 mM tris(2-carboxyethyl)-phosphine at 22 °C for 5 minutes, alkylation in 10 mM iodoacetamide at 22 °C for 20 minutes and an overnight enzymatic fragmentation at 37 °C with a trypsin-to-protein ratio of 1:20 (assuming a concentration of 60 mg/mL protein in serum). […]
The following peptide transitions were monitored in the mass spectrometer : […] […]

[8] = system: Vero cells; conditions: Vero 24 h 5% FBS

## O=C(O)c1ccc(F)c(F)c1Nc1ccc(I)cc1Cl [zapnometinib]
[1]; up to day 30
  IL-8/CXCL-8 levels: slight but not statistically significant increase
  TNF-α levels: no changes
[1]; up to day 30, 900 mg D1 then 600 mg daily D2-6, p = <0.0001
  MCP-1 levels: significant reduction
[1]; up to day 30, p = 0.0017
  IL-6 levels: significantly reduced
[1]; up to day 30, p = <0.0001
  IFNγ levels: significant reduction
  MIP-1α levels: significant reduction
[2]
  Lymphocytes, Increase compared to Placebo: 44.5%
  Plasma B cells, Increase compared to Placebo: 61.8%
[2]; p = 0.0377
  Memory B cells, Increase compared to Placebo: -37.4%
[2]; p = 0.0409
  T cells, Increase compared to Placebo: 73.7%
[3]
  EC50: 33.6 µM and 13.8 µg/mL
[4]; 5 mg/kg LPS i.p., 25 mg/kg p.o. 1 h post-stimulation, lung, 6 h post treatment, vs control
  expression of most of the 84 genes (e.g. Il1b, IL-6, ccl2, cxcl1, cxcl10, ccl3): downregulated
[4]; 25 mg/kg p.o. 1 h after LPS
  Cxcl1 gene expression in lung tissue: significantly reduced
  Il6 gene expression in lung tissue: significantly reduced
  Tnf gene expression in lung tissue: significantly reduced
[4]; 25 mg/kg p.o. 1 h after LPS, lung, p = 0.118
  Ifna2 gene (IFN-α) expression: not significantly downregulated
[5]; 0.39 µM
  %LDH release compared to maximum LDH release: 0.22%
[5]; 0.78 µM
  %LDH release compared to maximum LDH release: 0.17%
[5]; 1.56 µM
  %LDH release compared to maximum LDH release: 0.15%
[5]; 3.13 µM
  %LDH release compared to maximum LDH release: 0.39%
[5]; 6.25 µM
  %LDH release compared to maximum LDH release: 0.13%
[5]; 12.50 µM
  %LDH release compared to maximum LDH release: 0.09%
[5]; 25.00 µM
  %LDH release compared to maximum LDH release: -0.04%
[5]; 50.00 µM
  %LDH release compared to maximum LDH release: 0.02%
[5]; 75.00 µM
  %LDH release compared to maximum LDH release: 0.24%
[5]; 100.00 µM
  %LDH release compared to maximum LDH release: 0.26%
[6]
  EC50: 37.9 µM and 15.5 µg/mL
[7]; 0 dpi vs 4 dpi, 100 mg/kg then 75 mg/kg from +4 or +24 h p.i.
  levels of safety biomarkers HMGB1, GLDH, SELP in serum: no prominent changes
[7]; 100 mg/kg followed by 75 mg/kg beginning at +4 or +24 h p.i.
  toxicity of the treatment regimen: not toxic
[8]; 0.39 µM
  %LDH release compared to maximum LDH release: 0.35%
[8]; 0.78 µM
  %LDH release compared to maximum LDH release: 0.41%
[8]; 1.56 µM
  %LDH release compared to maximum LDH release: 0.41%
[8]; 3.13 µM
  %LDH release compared to maximum LDH release: -0.37%
[8]; 6.25 µM
  %LDH release compared to maximum LDH release: 0.02%
[8]; 12.50 µM
  %LDH release compared to maximum LDH release: 0.31%
[8]; 25.00 µM
  %LDH release compared to maximum LDH release: 0.12%
[8]; 50.00 µM
  %LDH release compared to maximum LDH release: 0.49%
[8]; 75.00 µM
  %LDH release compared to maximum LDH release: 0.83%
[8]; 100.00 µM
  %LDH release compared to maximum LDH release: 1.44%
